# Several values for one entry are separate records, joined by “and”; a condition that tells them apart may be missing. Equal entries are not always repeated.
# Experiments:
# [1] = Fluorescence emission spectra and quantum yield relative to HITC; format: physicochemical; conditions: for QY (fluor): given as fraction in synthesis example
# Description: Fluorescence spectra for the dyes were determined at RT on a Varian Cary Eclipse spectrofluorometer in a standard 1-cm quartz cell. The spectra were corrected. All concentrations of the fluorophores were chosen to be between 0.2 and 1.0 μM.
# For the determination of the quantum yields (QY), the integrated relative intensities of the dyes or dye-protein conjugates, were measured against HITC as the reference. All absorbances at excitation wavelength (λexc) were in the range of 0.04-0.08 (when measured in a 1-cm cell).
# The QY of each sample was independently measured 3-4 times and the average value was calculated.
# [2] = Absorption spectra and extinction coefficients of dyes; format: physicochemical; conditions: for Extinction coefficient ε at λmax (abs): synthesis example, no unit
# Description: Absorption spectra were measured at RT on a Perking Elmer Lambda 35 UV/Vis spectrophotometer. […] The stock solution was diluted (1:2000) and the absorbance was measured in a 5-cm standard quartz cell. All dye concentrations were in the range of 1.1 to 2.0×10^−7 M. The extinction coefficients were calculated according to Lambert-Beer's law.
# [3] = Singlet oxygen quantum yield, DPBF scavenger method in ethanol; format: physicochemical; conditions: measured in ethanol, 650 nm laser, ICG reference
# Description: The modified relative photochemical method of Spiller W. et al. (J. Porphyrins Phthalocyanines, 1998, V. 2, 145-158) utilizing 1,3-diphenylisobenzofuran (DPBF) as a chemical scavenger was used to determine the photosensitiser's singlet oxygen quantum yields (ΦΔ) in ethanol solutions.
# Ethanolic solutions containing DPBF (10 μM) and sensitizers with absorbance (optical density) in a range between 0.09 and 0.10 at 650 nm (measured in a standard 1-cm quartz cell) were prepared. Samples were saturated with oxygen by bubbling. Next, 3 mL of the solution were placed in a 1-cm cell equipped with a stirring bar and a 10 mW, 650 nm diode laser was hermetically attached to the top of cuvette so as to avoid solvent evaporation and to provide a light beam direction from top to bottom of the cuvette. The solution in the cuvette was irradiated with the diode laser under continuous stirring for a certain time. DPBF consumption was determined by monitoring DPBF bleaching over irradiation time using absorption spectroscopy at 411 nm (extinction coefficient 22,000 M^−1 cm^−1). At least six absorption spectra were obtained for each solution at different irradiation times until the DPBF absorbance reduced at least to the 10% of the initial absorbance.
# The decrease of DPBF absorbance at 411 nm versus irradiation time was plotted for each photosensitizer and the DPBF degradation rate constant (K) characterizing the reaction rate of singlet oxygen with DPBF in presence of a sensitizer was calculated.
# bovine erythrocytes = experiment: Phototoxicity (glow lamp) and dark toxicity by hemolysis of bovine erythrocytes; format: cell-based; conditions: Dark
# Description: (§1) Bovine erythrocytes were isolated from blood plasma stored with sodium citrate. 1 mL of bovine blood was treated at centrifuge (3,000 rpm) for 10 min to precipitate erythrocytes. The supernatant was decanted, 2 mL of physiological solution were added, treated and erythrocytes were precipitated with centrifuge. The washing procedure was repeated for 3 times and the precipitated erythrocytes were collected. […] Cells were dye-incubated for 45 minutes at 37° C. in the dark. Then the examined suspensions of cells (erythrocytes) were placed at a distance of 30-cm from a 250 W glow red-lamp equipped with a water-based heat filter and irradiated with occasional stirring. After irradiation, cells were stored at 4° C. for 15 hours. […] The hemolysis level (percentage of hemolyzed cells) was determined as the ratio of absorbances of the supernatant and a solution of 100% hemolysed cells. The 100% hemolysis was taken as the value obtained when the given number of erythrocytes were suspended in distilled water.
# [4] = as above; format: cell-based; conditions: bovine, bovine erythrocytes, Glow Lamp
# Description: as §1
Compound,Emission max. ([1]; Methanol),Fluorescence quantum yield ([1]; Methanol),Absorption max. ([2]; Methanol),Emission max. ([1]; Water),Absorption max. ([2]; Water),also measured
"1-(5-carboxypentyl)-2-[7-(4,6-diiodo-1,3,3-trimethyl-3H-2-indoliumyl)-2,4,6-heptatrienylidene]-3,3-dimethyl-5-indolinesulfonate [I-73]",779 nm,41%,748 nm,,,QY (fluor) ([1]; methanol): 0.41
"1-(5-carboxypentyl)-2-[7-(4,6-diiodo-1,3,3-trimethyl-3H-2-indoliumyl)-2,4,6-heptatrienylidene]-3-methyl-3-(4-sulfobutyl)-5-indolinesulfonate [I-72]",780 nm,41%,750 nm,777 nm,750 nm,"Fluorescence quantum yield ([1]; Water): 21%; QY (fluor) ([1]; methanol): 0.41; QY (fluor) ([1]; water): 0.21; Singlet oxygen generation quantum yield ΦΔ [3]: 12%; Extinction Coefficient ([2]; Water): 270,000 M^−1cm^−1; Extinction coefficient ε at λmax (abs) ([2]; water): 270,000"
"3-(5-carboxypentyl)-2-[7-(4,6-diiodo-1,3,3-trimethyl-2,3-dihydro-1H-2-indolyliden)-1,3,5-heptatrienyl]-1,1-dimethyl-6-sulfo-8-(1H-benzo[e]indolium)sulfo-nate [I-74]",793 nm,22%,760 nm,,,QY (fluor) ([1]; methanol): 0.22
CN1\C(=C/C=C/C=C/C=C/C2=[N+](C)c3ccc(I)cc3C2(C)C)C(C)(C)c2cc(I)ccc21.[I-] [I-25],784 nm,30%,753 nm,779 nm,750 nm,"Emission max. ([1]; Chloroform): 801 nm; Singlet oxygen generation quantum yield ΦΔ [3]: 20%; Absorption max. ([2]; Chloroform): 771 nm; Hemolysis (bovine erythrocytes; 50 μM): 51%; hemolysis at 60 min, 0.1 µM ([4]; exposure 60 min): 39%; hemolysis at 30 min, 0.5 µM ([4]; 0.5 μM, exposure 30 min): 83%"
CN1/C(=C\C=C2/CCCC(/C=C/C3=[N+](C)c4ccc(I)cc4C3(C)C)=C2Cl)C(C)(C)c2cc(I)ccc21.[I-] [I-56],806 nm,16%,784 nm,,,
CN(C)c1ccc(SC2=C(/C=C/C3=[N+](C)c4ccc(I)cc4C3(C)C)CCC/C2=C\C=C2/N(C)c3ccc(I)cc3C2(C)C)cc1.[I-] [I-61],812 nm,14%,792 nm,,,
CC(C)(C)C1=CC(=C/C=C/C=C/C=C/C2=[N+](CCCS(=O)(=O)[O-])c3ccc(I)cc3C2(C)CCCCCC(=O)O)C=C(C(C)(C)C)O1 (centres unmarked) [I-68],826 nm,6%,794 nm,,,
"CN1\C(=C/C=C/C=C/C=C/C2=[N+](C)c3cc(I)cc(I)c3C2(C)C)C(C)(C)c2c(I)cc(I)cc21.[I-] [I-71, 2-[7-(4,6-diiodo-1,3,3-trimethyl-2,3-dihydro-1H-2-indolyliden)-1,3,5-heptatrienyl]-4,6-diiodo-1,3,3-trimethyl-3H-indolium iodide]",773 nm,46%,745 nm,,,"QY (fluor) ([1]; methanol): 0.46; Singlet oxygen generation quantum yield ΦΔ [3]: 19%; Hemolysis (bovine erythrocytes; 5 μM): 2%; Hemolysis (bovine erythrocytes; 50 μM): 30%; hemolysis at 60 min, 0.1 µM ([4]; exposure 60 min): 21%; hemolysis at 30 min, 0.5 µM ([4]; 0.5 μM, exposure 30 min): 75%"
"CN1\C(=C/C=C/C=C/C=C/C2=[N+](C)c3cc(I)cc(I)c3C2(C)CCCCCC(=O)O)C(C)(CCCCCC(=O)O)c2c(I)cc(I)cc21.[I-] (centres unmarked) [I-79, 3-(5-carboxypentyl)-2-7-[3-(5-carboxypentyl)-4,6-diiodo-1,3-dimethyl-2,3-dihydro-1H-2-indolyliden]-1,3,5-heptatrienyl-4,6-diiodo-1,3-dimethyl-3H-indolium iodide]",,,,,,"Absorption max. ([2]; Chloroform): 763 nm; Hemolysis (bovine erythrocytes; 50 μM): 4%; hemolysis at 60 min, 0.5 µM ([4]; 0.5 μM, exposure 60 min): 75%; hemolysis at 30 min, 1 µM ([4]; 1 μM, exposure 30 min): 80%"
"C[N+]1=C(C=CC=CC=CC=C2N(CCCCS(=O)(=O)[O-])c3ccc(S(=O)(=O)O)cc3C2(C)C)C(CCCCCC(=O)O)c2c(I)cc(I)cc21 (centres unmarked) [I-83, 4-(2-7-[3-(5-carboxypentyl)-4,6-diiodo-1-methyl-3H-2-indoliumyl]-2,4,6-heptatrienylidene-3,3-dimethyl-5-sulfo-2,3-dihydro-1H-1-indolyl)-1-butanesulfonate]",779 nm,43%,750 nm,776 nm,748 nm,Emission max. ([1]; Conjugates with IgG (antibody)): 776 nm; Fluorescence quantum yield ([1]; Water): 22%; Absorption max. ([2]; Conjugates with IgG (antibody)): 755 nm
"CC1(CCCCCC(=O)O)C(/C=C/C=C/C=C/C=C2\N(CCCCS(=O)(=O)O)c3ccc(S(=O)(=O)[O-])cc3C2(C)CCCCS(=O)(=O)O)=[N+](CCCS(=O)(=O)O)c2cc(I)c(I)c(I)c21 (centres unmarked) [I-84, 4-[2-7-[3-(5-carboxypentyl)-4,5,6-triiodo-3-methyl-1-(3-sulfopro-pyl)-2,3-dihydro-1H-2-indolyliden]-1,3,5-heptatrienyl-3-methyl-5-sulfo-3-(4-sulfobutyl)-3H-1-indoliumyl]-1-butanesulfonate]",,,,787 nm,758 nm,"Emission max. ([1]; Conjugates with IgG (antibody)): 787 nm; Emission max. ([1]; Phosphate buffer (pH 7.4)): 787 nm; Fluorescence quantum yield ([1]; Water (PB, pH 7.4)): 20%; QY (fluor) ([1]; water): 0.20; Absorption max. ([2]; Conjugates with IgG (antibody)): 762 nm; Absorption max. ([2]; Phosphate buffer (pH 7.4)): 758 nm; Extinction coefficient ε at λmax (abs) ([2]; water): 270,000"
"CN1\C(=C/C=C/C=C/C=C/C2=[N+](C)c3cc(Br)c(Br)c(Br)c3C2(C)C)C(C)(C)c2c1cc(Br)c(Br)c2Br.[I-] [I-88, 4,5,6-tribromo-1,3,3-trimethyl-2-[7-(4,5,6-tribromo-1,3,3-trimethyl-2,3-dihydro-1H-2-indolyliden)-1,3,5-heptatrienyl]-3H-indolium iodide]",778 nm,50%,748 nm,,,"QY (fluor) ([1]; methanol): 0.50; Singlet oxygen generation quantum yield ΦΔ [3]: 11%; Extinction Coefficient ([2]; Methanol): 240,000 M^−1cm^−1; Extinction coefficient ε at λmax (abs) ([2]; methanol): 240,000"
"C[N+]1=C(C=CC=CC=CC=C2N(CCCCCC(=O)NCCOCCOCCOCCC(=O)O)c3ccc(S(=O)(=O)[O-])cc3C2(C)CCCCS(=O)(=O)O)C(C)(C)c2c(I)cc(I)cc21 (centres unmarked) [I-89, 1-[5-(2-2-[2-(2-carboxyethoxy)ethoxy]ethoxyethylcarbamoyl)-pentyl]-2-[7-(4,6-diiodo-1,3,3-trimethyl-3H-2-indoliumyl)-2,4,6-heptatrienylidene]-3-methyl-3-(4-sulfobutyl)-5-indolinesulfonate]",,,,777 nm,750 nm,"Fluorescence quantum yield ([1]; Water): 21.5%; Singlet oxygen generation quantum yield ΦΔ [3]: 13%; Extinction Coefficient ([2]; Water): 270,000 M^−1cm^−1"
CC1(CCCCCC(=O)N2CC[N+]3(CC2)CC[N+]2(CCNCC2)CC3)C(/C=C/C=C/C=C/C=C2\N(CCCS(=O)(=O)[O-])c3cc(I)c(I)c(I)c3C2(C)CCCCCC(=O)N2CC[N+]3(CC2)CC[N+]2(CCNCC2)CC3)=[N+](CCCS(=O)(=O)[O-])c2cc(I)c(I)c(I)c21.[Cl-].[Cl-].[Cl-] (centres unmarked) [I-91],795 nm,26%,766 nm,,,
CC1(CCCCCC(=O)NCCS(=O)(=O)O)C(/C=C/C=C/C=C/C=C2\N(CCCS(=O)(=O)O)c3cc(I)c(I)c(I)c3C2(C)CCCCCC(=O)NCCS(=O)(=O)O)=[N+](CCCS(=O)(=O)[O-])c2cc(I)c(I)c(I)c21 (centres unmarked) [I-92],794 nm,39%,764 nm,,,
CN1\C(=C/C=C/C=C/C=C/C2=[N+](C)c3cc(I)c(I)c(I)c3C2(C)CCCCCC(=O)O)C(C)(CCCCCC(=O)O)c2c1cc(I)c(I)c2I.[I-] (centres unmarked) [I-93],783 nm,47%,755 nm,n.f.,783 nm,
CN1\C(=C/C=C/C=C/C=C/C2=[N+](C)c3cc(I)c(I)c(I)c3C2(C)CCCCCC(=O)N2CC[N+]3(CC2)CC[N+]2(CCNCC2)CC3)C(C)(CCCCCC(=O)N2CC[N+]3(CC2)CC[N+]2(CCNCC2)CC3)c2c1cc(I)c(I)c2I.[Cl-].[Cl-].[Cl-].[Cl-].[Cl-] (centres unmarked) [I-94],788 nm,38%,759 nm,782 nm,695 nm and 756 nm,Fluorescence quantum yield ([1]; Water): 1.8%
CN1/C(=C\C=C2/CCCC(/C=C/C3=[N+](C)c4cc(I)c(I)c(I)c4C3(C)C)=C2Cl)C(C)(C)c2c1cc(I)c(I)c2I.[I-] [I-96],808 nm,21%,787 nm,,,

# From patent US9572881B2, “Halogenated compounds for photodynamic therapy” (Nanoquantum Sciences, Inc., priority 2012, dated 2017)
